Measurements as given in patent publication US10065990B2, “Cyclic peptide compound, and preparation method, pharmaceutical composition and use thereof” (HANGZHOU GUANYU BIO-MEDICAL CO., LTD, priority 2013, dated 2018).
Where two headings read alike, the source gives them in different places.

Experiments:
HDAC2 = HDAC2 (Homo sapiens, UniProt Q92769); experiment: HDAC biochemical activity measurement (fluorescent substrate deacetylation);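 further: HDAC2 enzyme with an acetyl-lysine fluorescent substrate, then developer added, fluorescence read at excitation 360 nm and emission 460 nm, inhibition measured across several compound concentrations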; details: 37° C. 30 minutes
HDAC11 = target: T1, HDAC11 (Homo sapiens, UniProt Q96DB2); experiment: as above;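 further: HDAC11 enzyme acting on an acetyl-lysine fluorogenic substrate, then a developer frees the fluorophore, read at excitation 360 nm and emission 460 nm, IC50 over a compound dilution series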
T1 sequence (Q96DB2 1-347): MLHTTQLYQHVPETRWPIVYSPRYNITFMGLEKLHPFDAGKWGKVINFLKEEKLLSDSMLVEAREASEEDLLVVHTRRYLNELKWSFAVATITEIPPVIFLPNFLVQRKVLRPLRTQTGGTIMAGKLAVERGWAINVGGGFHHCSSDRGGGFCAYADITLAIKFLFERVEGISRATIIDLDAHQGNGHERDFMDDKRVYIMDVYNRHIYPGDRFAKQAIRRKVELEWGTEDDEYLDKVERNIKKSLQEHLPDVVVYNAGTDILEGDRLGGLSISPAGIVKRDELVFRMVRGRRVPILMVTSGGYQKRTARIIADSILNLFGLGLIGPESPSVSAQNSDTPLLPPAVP

HDAC7 = target: T2, HDAC7 (Homo sapiens, UniProt Q8WUI4); experiment: as above; details: HDAC7; 37° C. 30 minutes;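 further: fluorogenic deacetylation assay using acetyl-lysine substrate at 20 µM, enzyme and compound incubated 30 min at 37 °C, then developer added, fluorescence read at 360/460 nm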
T2 sequence (Q8WUI4 1-952): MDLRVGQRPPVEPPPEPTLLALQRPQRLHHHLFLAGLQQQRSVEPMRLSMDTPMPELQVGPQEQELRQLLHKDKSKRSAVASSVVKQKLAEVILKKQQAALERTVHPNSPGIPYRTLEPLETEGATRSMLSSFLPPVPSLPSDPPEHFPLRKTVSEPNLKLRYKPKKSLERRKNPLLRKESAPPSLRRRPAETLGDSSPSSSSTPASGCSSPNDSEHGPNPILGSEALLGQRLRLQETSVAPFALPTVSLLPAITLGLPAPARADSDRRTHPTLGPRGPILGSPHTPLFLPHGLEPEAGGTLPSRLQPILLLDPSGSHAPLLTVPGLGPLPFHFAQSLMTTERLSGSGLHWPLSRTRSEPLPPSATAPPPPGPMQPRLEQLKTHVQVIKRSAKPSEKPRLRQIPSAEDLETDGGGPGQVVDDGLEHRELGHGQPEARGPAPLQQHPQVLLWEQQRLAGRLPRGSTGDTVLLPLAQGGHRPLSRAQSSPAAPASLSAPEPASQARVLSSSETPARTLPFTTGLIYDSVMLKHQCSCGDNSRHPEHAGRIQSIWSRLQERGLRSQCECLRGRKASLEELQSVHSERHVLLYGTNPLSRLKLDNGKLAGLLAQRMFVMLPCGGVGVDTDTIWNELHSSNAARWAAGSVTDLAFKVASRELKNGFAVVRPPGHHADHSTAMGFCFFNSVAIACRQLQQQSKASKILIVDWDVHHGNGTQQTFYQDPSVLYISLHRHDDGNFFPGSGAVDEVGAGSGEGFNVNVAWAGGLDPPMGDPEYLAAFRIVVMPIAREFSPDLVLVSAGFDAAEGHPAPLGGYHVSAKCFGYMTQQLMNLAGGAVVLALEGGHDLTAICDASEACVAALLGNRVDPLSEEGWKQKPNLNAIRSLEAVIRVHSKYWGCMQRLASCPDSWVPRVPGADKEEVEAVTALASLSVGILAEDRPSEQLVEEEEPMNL

HDAC1 = HDAC1 (Homo sapiens, UniProt Q13547); experiment: as above
HDAC3 = HDAC3 (Homo sapiens, UniProt O15379); experiment: as above;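 further: fluorogenic acetyl-lysine substrate (20 µM) deacetylated by HDAC3, then developer added for 15 min at room temperature, release of fluorophore read at excitation 360 nm, emission 460 nm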
[1] = system: H1975 (non-small cell lung adenocarcinoma); experiment: MTT cancer cell growth inhibition; format: cell-based; details: Homo sapiens, NCI-H1975, 72 h, MTT, 72 hours incubation, H1975 cells; read-out: GI50 H1975
Summary of the method: (§1)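 Three-day compound exposure (final 10^−5–10^−10 M, three replicate wells) of cells seeded at 1500 per well precedes a 4 h MTT incubation at 37° C. Viability is taken from 570 nm absorbance after DMSO solubilisation, and GI50 calculated from it.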

[2] = system: MOLT-4 (human acute lymphoblastic leukemia cells); experiment: MTT cancer cell growth inhibition; format: cell-based; details: Homo sapiens, MOLT-4, 72 h, MTT
Summary of the method: as §1

[3] = system: A549 (human lung cancer cells); experiment: MTT cancer cell growth inhibition; format: cell-based; details: Homo sapiens, A549, 72 h, MTT
Summary of the method: as §1

[4] = system: MCF-7 (human breast cancer cells); experiment: MTT cancer cell growth inhibition; format: cell-based; details: Homo sapiens, MCF7, 72 h
Summary of the method: as §1

[5] = system: KBM5-T315I (human chronic myelogenous leukemia); experiment: MTT cancer cell growth inhibition; format: cell-based; details: Homo sapiens, 72 h, MTT, 72 hours incubation, KBM5-T315I cells; read-out: GI50 KBM5-T315I
Summary of the method: as §1

HDAC8 = target: T3, HDAC8 (Homo sapiens, UniProt Q9BY41); experiment: HDAC biochemical activity measurement (fluorescent substrate deacetylation); details: 37° C. 30 minutes
T3 sequence (Q9BY41 1-377): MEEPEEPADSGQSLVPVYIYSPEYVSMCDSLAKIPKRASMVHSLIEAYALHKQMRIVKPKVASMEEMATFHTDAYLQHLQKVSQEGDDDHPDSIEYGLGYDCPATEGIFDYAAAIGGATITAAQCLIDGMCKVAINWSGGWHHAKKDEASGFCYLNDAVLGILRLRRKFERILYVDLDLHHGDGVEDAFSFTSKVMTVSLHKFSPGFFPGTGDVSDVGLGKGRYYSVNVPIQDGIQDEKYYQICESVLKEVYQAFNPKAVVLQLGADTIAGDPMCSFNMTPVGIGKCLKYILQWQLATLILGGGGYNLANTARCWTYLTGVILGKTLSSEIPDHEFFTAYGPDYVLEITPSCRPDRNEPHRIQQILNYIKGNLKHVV
Protocol: The chemical activity of the compound is determined according to the degree of deacetylation inhibition of the HDAC enzyme. This experiment measured the degree of deacetylation related to tumor proliferation and metastasis of HDAC1, HDAC2, HDAC3, HDAC8, HDAC11 five subtypes HDAC enzymes. After the substrate containing an acetylated lysine side chain and HDAC enzyme are labeled with a fluorescent label, the fluorescent substrate is de acetyl. The fluorescent labeled substrate is cleaved by the enzyme, and the fluorescent substance is released, which generates 460 nm emission light under the excitation of 360 nm light.
HDAC substrate was diluted with reaction buffer to 200M (reaction concentration of 20M), the HDAC enzyme was diluted to the appropriate concentration, then added different concentrations of the test compounds and acted at 37° C. 30 minutes, and then added the same volume of 2-times concentration substrate developing solution (developer), incubated at room temperature for 15 minutes.

[6] = HDAC1, 37° C. 30 minutes, read-out: IC50 HDAC1
[7] = 72 hours incubation, read-out: GI50 Mol
[8] = 72 hours incubation, read-out: GI50 A54
[9] = 72 hours incubation, read-out: GI50 MCF
[10] = read-out: IC50 HDAC11, HDAC11, 37° C. 30 minutes
[11] = Table 2, read-out: IC50 HDAC1, a (compounds of the present invention)
[12] = read-out: IC50 HDAC3, HDAC3, 37° C. 30 minutes
[13] = MOLT-4 cells, 72 hours incubation, read-out: GI50 Mol
[14] = 72 hours, present invention, read-out: GI50 Molt-4, a
[15] = A549 cells, 72 hours incubation, read-out: GI50 A54
[16] = 72 hours, present invention, read-out: GI50 A549, a
[17] = 72 hours, present invention, read-out: GI50 MCF7, a
[18] = MCF-7 cells, 72 hours incubation, read-out: GI50 MCF
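Wherever IC50 HDAC1 is given: fluorogenic acetyl-lysine substrate (20 µM) deacetylated by HDAC1, then developer releases fluorophore read at 360 nm excitation and 460 nm emission, inhibitor incubated 30 min at 37 °C.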
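Wherever IC50 HDAC1, D (non-substituent) is given: fluorogenic acetyl-lysine substrate (20 µM) deacetylated by HDAC1, then developer releases fluorophore read at 360 nm excitation and 460 nm emission, inhibitor incubated 30 min at 37 °C.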
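Wherever IC50 HDAC1, a (compounds of the present invention) is given: fluorogenic acetyl-lysine substrate (20 µM) deacetylated by HDAC1, then developer releases fluorophore read at 360 nm excitation and 460 nm emission, inhibitor incubated 30 min at 37 °C.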

Chain of HDAC3 (O15379 whole entry, species assumed): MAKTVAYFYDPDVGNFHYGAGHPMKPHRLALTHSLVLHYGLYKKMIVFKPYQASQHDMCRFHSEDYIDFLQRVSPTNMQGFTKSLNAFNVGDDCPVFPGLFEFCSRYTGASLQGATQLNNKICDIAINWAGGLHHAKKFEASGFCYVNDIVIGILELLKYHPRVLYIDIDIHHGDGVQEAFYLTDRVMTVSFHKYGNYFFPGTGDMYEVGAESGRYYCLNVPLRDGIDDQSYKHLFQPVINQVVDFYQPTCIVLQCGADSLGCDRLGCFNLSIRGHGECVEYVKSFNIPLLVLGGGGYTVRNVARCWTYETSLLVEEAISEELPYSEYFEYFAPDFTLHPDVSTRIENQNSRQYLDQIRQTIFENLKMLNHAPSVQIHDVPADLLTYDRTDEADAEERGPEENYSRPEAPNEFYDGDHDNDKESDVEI
Chain of HDAC3 (Q9Y618 395-489 partner limits assumed, species assumed): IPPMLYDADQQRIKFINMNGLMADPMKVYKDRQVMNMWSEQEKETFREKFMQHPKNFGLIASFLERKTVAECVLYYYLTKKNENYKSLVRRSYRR
Chain of HDAC1 (Q13547 whole entry, species assumed): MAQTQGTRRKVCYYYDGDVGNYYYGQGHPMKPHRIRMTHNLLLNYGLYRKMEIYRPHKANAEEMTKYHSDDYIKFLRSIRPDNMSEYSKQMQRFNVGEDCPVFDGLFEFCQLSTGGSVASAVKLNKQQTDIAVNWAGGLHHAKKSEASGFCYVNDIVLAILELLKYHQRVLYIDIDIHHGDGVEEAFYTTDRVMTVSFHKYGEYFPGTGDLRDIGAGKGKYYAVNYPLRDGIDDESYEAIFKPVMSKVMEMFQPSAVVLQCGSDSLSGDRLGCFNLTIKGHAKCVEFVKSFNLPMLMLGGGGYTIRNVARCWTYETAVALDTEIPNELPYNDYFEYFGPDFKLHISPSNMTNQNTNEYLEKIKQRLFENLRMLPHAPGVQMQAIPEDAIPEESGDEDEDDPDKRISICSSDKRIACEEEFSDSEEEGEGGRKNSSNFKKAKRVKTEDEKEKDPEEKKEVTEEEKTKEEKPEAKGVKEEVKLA
Chain of HDAC2 (Q92769 whole entry, species assumed): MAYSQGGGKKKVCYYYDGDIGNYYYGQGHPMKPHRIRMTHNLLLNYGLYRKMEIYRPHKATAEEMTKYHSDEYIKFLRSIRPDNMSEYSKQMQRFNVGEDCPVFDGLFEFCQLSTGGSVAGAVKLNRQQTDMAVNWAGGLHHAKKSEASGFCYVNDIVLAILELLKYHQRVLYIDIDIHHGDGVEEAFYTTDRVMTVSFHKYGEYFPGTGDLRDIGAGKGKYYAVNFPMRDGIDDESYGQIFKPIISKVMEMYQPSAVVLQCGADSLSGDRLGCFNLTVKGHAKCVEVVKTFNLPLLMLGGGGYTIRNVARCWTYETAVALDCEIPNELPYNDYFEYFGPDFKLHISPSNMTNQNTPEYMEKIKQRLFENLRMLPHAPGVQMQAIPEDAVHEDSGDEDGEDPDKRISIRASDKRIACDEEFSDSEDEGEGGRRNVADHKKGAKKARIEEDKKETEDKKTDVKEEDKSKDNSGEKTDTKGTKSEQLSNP

Row | SMILES | IC50 (HDAC2) [nM] | IC50 (HDAC11) [nM] | IC50 HDAC7 (HDAC7) | IC50 (HDAC1; [6]) [nM] | IC50 (HDAC3) [nM] | GI50 [1] [nM] | GI50 [2, 7] [nM] | GI50 [3, 8] [nM] | GI50 [4, 9] [nM] | GI50 [5] [nM] | IC50 (HDAC8) [nM] | IC50 (HDAC11; [10]) [nM] | IC50 (HDAC1; [11]) [nM] | IC50 (HDAC3; [12]) [nM] | GI50 [2, 13] [nM] | GI50 [2, 14] [nM] | GI50 [3, 15] [nM] | GI50 [3, 16] [nM] | GI50 [4, 17] [nM] | GI50 [4, 18] [nM] | also measured
1 | C/C=C1\NC(=O)c2nc(ccc2F)CNC(=O)C[C@@H](/C=C/CCSC=O)OC(=O)[C@H](C(C)C)NC1=O [Example 51] | 52 | 103 | no activity | 46 | 51 | 63 | 20 | 40 | 70 | 77 | 41 | – | – | – | – | – | – | – | – | – | –
2 | C/C=C1\NC(=O)c2nc(ccc2C)CNC(=O)C[C@@H](/C=C/CCSC(=O)CCCCCCC)OC(=O)[C@H](C(C)C)NC1=O [Compound 243] | 56 | – | no activity | 87 | – | 43 | – | – | – | 45 | 129 | 187 | < 100 | 48 | 490 | 490 | 940 | 940 | 120 | 120 | –
3 | C/C=C1\NC(=O)c2cccc(n2)CNC(=O)C[C@@H](/C=C/CCSC(C)=O)OC(=O)[C@H](C(C)C)NC1=O [Compound 7] | 17 | – | no activity | 87 | – | 34 | 20 | 50 | 30 | 52 | 39 | 11 | < 500 | 7 | – | 21 | – | 52 | 30 | – | IC50 (HDAC1; Table 3, read-out: IC50 HDAC1, D (non-substituent)): 87 nM
4 | C/C=C1\NC(=O)c2cc(SC)cc(n2)CNC(=O)C[C@@H](/C=C/CCSC(C)=O)OC(=O)[C@H](CC)NC1=O [Compound 178] | 26 | 99 | no activity | 91 | 35 | 89 | – | – | – | 22 | 36 | – | – | – | 50 | – | 30 | – | – | 30 | –
